Assay results reported in patent US20140371244A1, “METHOD FOR TREATING PROSTATE CANCER BY USE OF PHARMACEUTICAL COMPOSITION CONTAINING A3 ADENOSINE RECEPTOR AGONIST” (priority 2009, published 2014).

Key:
[1] = tested on: iNOS (inducible nitric oxide synthase); assay: NO production inhibitory activity (iNOS assay) in LPS-stimulated RAW 264.7 cells; assay type: cell-based, mouse; details: LPS 1 μg/ml; for IC50: RAW 264.7 cells, 20 hours, read-out: IC50 of NO production inhibition
Description: A test was carried out to examine the inhibitory activity of the inhibitory activity of the inventive composition on the enzyme iNOS (inducible nitric oxide synthase) whose expression increases when inflammatory reactions and traumas exist.
Specifically, RAW 264.7 cells (5×10^5 cells/ml) were added to a 24-well plate with 10% FBS-containing DMEM medium in an amount of 1 ml per well and cultured for 24 hours. […] After 30 minutes, 1 μg/ml of LPS was added to the cells which were then cultured in a 5% CO2 incubator at 37° C. for 20 hours (test groups). As a blank, RAW cells cultured without addition of LPS and the inventive composition were used, and as a control group, RAW cells cultured with addition of only LPS were used.
100 μl of the supernatant of each well was taken and allowed to react with 90 μl of each of sulfanilamide solution and N-(1-naphtyl)-ethylenediamine solution. Then, each reaction product was measured for absorbance at 540 nm to determine the amount of nitrate or nitrite produced in the culture medium, and the results of the measurement are shown in FIG. 1.
A standard curve was potted using NaNO2 solution, and the NO production inhibitory activity of each of the samples was evaluated by calculating NaNO2 concentration in each test group relative to the control group using the following equation 1 based on the measured absorbance and comparing the calculated NaNO2 concentration with that in the group treated with LPS alone. Inhibition rate (%) was calculated as nitrate concentration using the following equation, and then the IC50 value of the composition was calculated.

[2] = tested on: human colorectal cancer HCT 116 cells; assay: SRB assay, growth of HCT 116 cells; assay type: cell-based; details: 72 hours; for growth of HCT 116 cells: 100, 50, 25 and 12.5 μM; for IC50: SRB
Description: In order to compare the inhibitory effect of thio-Cl-IB-MECA of the present invention on the inhibition of human colorectal cancer HCT 116 cells with the effects of other A3 adenosine receptor agonists, IB-MECA and Cl-IB-MECA, a sulforhodamine B (SRB) assay was performed.
Specifically, 10 μL of a solution of thio-Cl-IB-MECA in 10% dimethylsulfoxide (DMSO) was loaded in each well of a 96-well plate in triplicate at concentrations of 100, 50, 25 and 12.5 μM, thus making a test plate. Cells were diluted to a density of 5×10^4 cells/ml with 10% FBS-containing RPMI 1640 medium supplemented with antibiotics-antimycotics, and 190 μL of the cell suspension was added to each well so as to reach a total volume of 200 μL and was cultured in a 5% CO2 incubator at 37° C. for 3 days. At the same time, 190 μL of the same cell suspension was loaded into each of 16 wells or more of a fresh 96-well plate containing no sample (thio-Cl-IB-MECA) and was cultured in a 5% CO2 incubator at 37° C. for 30 minutes, thereby determining reference date. After the culture, 50 μL of 50% trichloroacetic acid (TCA) was added to each well, and the cells were fixed by culture at 4° C. for 1 hour. Then, the well plate was washed five times with tap water and dried. 100 μL of a 1% acetic acid solution containing […] sulforhodamine B (SRB) was added to each well to stain the cells, and the well plate was allowed to stand at room temperature for 1 hour. After the well plate has been washed five times with 1% acetic acid and sufficiently dried, 200 μL of 100 mM Tris-base was added to each well, and the bound staining liquid was dissolved and sufficiently shaken in a shaker. Then, the absorbance at 515 nm was measured using an ELISA microplate reader. Based on the measured absorbance, the cell viability of the test group relative to the control group was calculated using equation 2 above. Based on the viability at each concentration, the IC50 value of the test sample was calculated using TableCurve program.
In the cases of IB-MECA or Cl-IB-MECA, the viability of cancer cells was examined in the same manner as the case of thio-Cl-IB-MECA.

[3] = tested on: prostate cancer cell line PC-3; assay: Anticancer activity in PC-3 tumor-transplanted nude mice; assay type: in vivo; details: for tumor production inhibitory activity relative to the control group: 2 mg/kg orally every day for 35 days
Description: Based on the anticancer activity of thio-Cl-IB-MECA against prostate cancer cells, proven by the in vitro test, the anticancer activity of thio-Cl-IB-MECA was measured by an animal test. The prostate cancer cell line PC-3 was transplanted subcutaneously into nude mice, and when the tumor size reached 150-200 mm^3 after 8 days, the drug thio-Cl-IB-MECA (0.02, 0.2 and 2 mg/kg), thio-IB-MECA (2 mg/kg) or IB-MECA (2 mg/kg) was administered orally every day for 35 days. The tumor size was measured at intervals of 3-5 days. The tumor volume was measured using the following equation 3.
Tumor volume=abc×π/6 [Equation 3]
wherein a represents the longer diameter of the tumor, b represents the shorter diameter of the tumor, and c represents the height of the tumor.

[4] = tested on: LPS-induced sepsis; assay: Animal model with LPS-induced sepsis; assay type: in vivo, ICR mice; details: LPS (S. marcenes) 2 mg/kg then 10 mg/kg
Description: The effect of the inventive composition (thio-Cl-IB-MECA) in an animal model with LPS-induced sepsis was tested. S. marcenes-derived LPS used in the test is known to be strongly pathogenic compared to E. coli-derived LPS. First, LPS was administered at low dose to attenuate an immune response in animals, and after a given time, it was administered at high dose to rapidly induce sepsis and septic shock. Specifically, ICR mice (20-25 g, male) were divided into the following 5 groups, each consisting of 6 mice: a normal group not treated with any substance; a control group administered with only saline; groups administered with the inventive composition (200 and 500 μg/kg of thio-Cl-IB-MECA); and a group administered with the conventional A3 adenosine receptor agonist (500 μg/kg IB-MECA). 30 minutes administration of these drugs, a solution of 2 mg/kg LPS (S. marcenes) in saline was administered intraabdominally. After 20 hours, the drug was administered again, and 30 minutes, LPS (S. marcenes) was administered again at a dose of 10 mg/kg. The mice were observed hourly up to 6 hours after the second stimulation, and the survival rate was observed up to 7 days after the second stimulation. The effect of the inventive composition (thio-Cl-IB-MECA) was compared with the effect of the prior A3 adenosine receptor agonist (IB-MECA), and the effects of the inventive composition (thio-Cl-IB-MECA) at different doses (200 and 500 μg/kg) were compared with each other.
The change in bodyweight was measured before the start of the test, before the second administration of the drug, and 7 days after the second administration.

| Compound | IC50 [1] | growth of HCT 116 cells [2] | IC50 [2] | tumor production inhibitory activity relative to the control group [3] | survival rate after 1 day ([4]; 500 μg/kg) | production of NO ([1]; 5, 10 and 20 μM) | tumor production as a function of dose ([3]; 0.02, 0.2 and 2 mg/kg orally every day for 35 days) | survival rate after 1 day ([4]; 200 μg/kg) |
| --- | --- | --- | --- | --- | --- | --- | --- | --- |
| CNC(=O)[C@H]1O[C@@H](n2cnc3c(NCc4cccc(I)c4)ncnc32)[C@H](O)[C@@H]1O [IB-MECA] | 65.7 µM | concentration-dependently inhibited the growth | 62.4 µM | about 45.9% | 66.7% |  |  |  |
| CNC(=O)[C@H]1S[C@@H](n2cnc3c(NCc4cccc(I)c4)nc(Cl)nc32)[C@H](O)[C@@H]1O [thio-Cl-IB-MECA, 2-chloro-N^6-(3-iodobenzyl)-4′-thioadenosine-5′-N-methyluronamide] | 16.2 µM | concentration-dependently inhibited the growth | 37.5 µM | 82.6% | 66.7% | inhibited in a concentration-dependent manner | inhibited tumor production in a concentration-dependent manner | 71.4% |
